From PMC9870890 (Nature Communications, 2023)
Several values for one entry are separate records, joined by “and”; a condition that tells them apart may be missing. Equal values may be shown once. Read-outs that look alike come from different tables or passages of the source.

Target: T1, M2R (Homo sapiens, UniProt P08172)
T1 sequence (P08172 1-466): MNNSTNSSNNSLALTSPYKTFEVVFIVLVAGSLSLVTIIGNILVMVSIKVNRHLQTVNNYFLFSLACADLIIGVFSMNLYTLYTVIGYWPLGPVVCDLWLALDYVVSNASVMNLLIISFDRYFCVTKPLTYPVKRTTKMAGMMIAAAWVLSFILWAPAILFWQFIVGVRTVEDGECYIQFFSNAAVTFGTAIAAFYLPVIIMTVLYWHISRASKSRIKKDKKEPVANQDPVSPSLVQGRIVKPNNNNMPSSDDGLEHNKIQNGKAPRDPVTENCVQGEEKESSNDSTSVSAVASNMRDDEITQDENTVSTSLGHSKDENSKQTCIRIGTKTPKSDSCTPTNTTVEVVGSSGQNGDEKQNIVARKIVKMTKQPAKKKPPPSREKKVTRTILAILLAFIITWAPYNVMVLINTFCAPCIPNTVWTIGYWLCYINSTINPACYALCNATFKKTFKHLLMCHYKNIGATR
Experiment: cell-based
Parameters: expressed in transfected cells; host or cells: HEK 293T
Details: for Emax: HEK-293T
Procedure: Determination of β-arrestin-2 recruitment was performed applying the PathHunter assay (DiscoverX, Birmingham, U.K.) which is based on fragment complementation of β-galactosidase as described. In detail, HEK293T cells were transfected with the flag-tagged M2 receptor carrying the PKA fragment for enzyme complementation and transferred into 384-well micro plates. […] Determination of chemoluminescence was done with a Clariostar plate reader (BMG, Ortenberg, Germany). […] Normalized curves from three to five individual experiments each done in duplicate were analyzed by non-linear regression applying the algorithms in Prism 8.0 (GraphPad, San Diego, CA) to get dose-response curves representing average EC50 and Emax value.

Structure (SMILES): C[N+](C)(C)CC#CCOC1=NOCC1 [Ixo, iperoxo]
- Emax (read-out: arrestin recruitment as % max effect of acetylcholin, iperoxo log [M] 3-8 + 100µM LY2119620): 160%
- Emax (read-out: arrestin recruitment as % max effect of acetylcholin, iperoxo log [M] 3-9 + 0.1µM LY2119620): 160%
- Emax (read-out: arrestin recruitment as % max effect of acetylcholin, iperoxo log [M] 3-9 + 3µM LY2119620): 166%
- Emax (read-out: arrestin recruitment as % max effect of acetylcholin, iperoxo log [M] 3-9 + 30µM LY2119620): 175%
- Emax (read-out: arrestin recruitment as % max effect of acetylcholin, iperoxo log [M] 3-9 + 100µM LY2119620): 159%
- Emax (read-out: arrestin recruitment as % max effect of acetylcholin, iperoxo log [M] 3-10 + 30µM LY2119620): 141%
- Emax (read-out: arrestin recruitment as % max effect of acetylcholin, iperoxo log [M] 3-10 + 100µM LY2119620): 125%
- Emax (read-out: arrestin recruitment as % max effect of acetylcholin, iperoxo log [M] 3-11 + 0.1µM LY2119620): 19.4%
- Emax (read-out: arrestin recruitment as % max effect of acetylcholin, iperoxo log [M] 3-11 + 1µM LY2119620): 30.8%
- Emax (read-out: arrestin recruitment as % max effect of acetylcholin, iperoxo log [M] 3-11 + 3µM LY2119620): 72.1%
- Emax (read-out: arrestin recruitment as % max effect of acetylcholin, iperoxo log [M] 3-11 + 10µM LY2119620): 77.5%
- Emax (read-out: arrestin recruitment as % max effect of acetylcholin, iperoxo log [M] 3-11 + 100µM LY2119620): 58.2%
- Emax (read-out: arrestin recruitment as % max effect of acetylcholin, iperoxo log [M] -5): 152%
- Emax (read-out: arrestin recruitment as % max effect of acetylcholin, iperoxo log [M] -6 + 0.1µM LY2119620): 163%
- Emax (read-out: arrestin recruitment as % max effect of acetylcholin, iperoxo log [M] -6 + 1µM LY2119620): 142%
- Emax (read-out: arrestin recruitment as % max effect of acetylcholin, iperoxo log [M] -6 + 3µM LY2119620): 170%
- Emax (read-out: arrestin recruitment as % max effect of acetylcholin, iperoxo log [M] -6 + 10µM LY2119620): 155%
- Emax (read-out: arrestin recruitment as % max effect of acetylcholin, iperoxo log [M] -6 + 30µM LY2119620): 180%
- Emax (read-out: arrestin recruitment as % max effect of acetylcholin, iperoxo log [M] -6 + 100µM LY2119620): 166%
- Emax (read-out: arrestin recruitment as % max effect of acetylcholin, iperoxo log [M] -7 + 30µM LY2119620): 168%
- Emax (read-out: arrestin recruitment as % max effect of acetylcholin, iperoxo log [M] -7 + 100µM LY2119620): 161%
- Emax (read-out: arrestin recruitment as % max effect of acetylcholin, iperoxo log [M] -8 + 0.1µM LY2119620): 162%
- Emax (read-out: arrestin recruitment as % max effect of acetylcholin, iperoxo log [M] -8 + 3µM LY2119620): 149%
- Emax (read-out: arrestin recruitment as % max effect of acetylcholin, iperoxo log [M] -8 + 30µM LY2119620): 176%
- Emax (read-out: arrestin recruitment as % max effect of acetylcholin, iperoxo log [M] -8 + 100µM LY2119620): 160%
- Emax (read-out: arrestin recruitment as % max effect of acetylcholin, iperoxo log [M] -10 + 3µM LY2119620): 105%
- Emax (read-out: arrestin recruitment as % max effect of acetylcholin, iperoxo log [M] -10 + 100µM LY2119620): 89%
- Emax (read-out: arrestin recruitment as % max effect of acetylcholin, iperoxo log [M] -11 + 3µM LY2119620): 44.6%
- Emax (read-out: arrestin recruitment as % max effect of acetylcholin, iperoxo log [M] -11 + 30µM LY2119620): 75.7%
- Emax (read-out: arrestin recruitment as % max effect of acetylcholin, iperoxo log [M] -11 + 100µM LY2119620): 58.6%
- Emax (read-out: arrestin recruitment as % max effect of acetylcholin, iperoxo log [M] -12 + 3µM LY2119620): 37.8%
- Emax (read-out: arrestin recruitment as % max effect of acetylcholin, iperoxo log [M] -12 + 100µM LY2119620): 62.6%
- Emax (read-out: arrestin recruitment as % max effect of acetylcholin, iperoxo log [M] -13 + 3µM LY2119620): 33%
- Emax (read-out: arrestin recruitment as % max effect of acetylcholin, iperoxo log [M] -13 + 10µM LY2119620): 26.7%
- Emax (read-out: arrestin recruitment as % max effect of acetylcholin, iperoxo log [M] -13 + 30µM LY2119620): 59.3%
- Emax (read-out: arrestin recruitment as % max effect of acetylcholin, iperoxo log [M] -13 + 100µM LY2119620): 44.2%
- Emax (read-out: enhancement of efficacy (Emax) in β-arrestin recruitment, presence of high concentration of LY2119620): ~15%
- arrestin recruitment as % max effect of acetylcholin (iperoxo log [M] 3-9): 135.8% and 120.8% and 147.9% and 130.1%
- arrestin recruitment as % max effect of acetylcholin (iperoxo log [M] 3-9 + 0.1µM LY2119620): 156.9%
- arrestin recruitment as % max effect of acetylcholin (iperoxo log [M] 3-9 + 1µM LY2119620): 109.3% and 162.2% and 161.4% and 201.0%
- arrestin recruitment as % max effect of acetylcholin (iperoxo log [M] 3-9 + 10µM LY2119620): 130.3% and 161.0% and 169.5%
- arrestin recruitment as % max effect of acetylcholin (iperoxo log [M] 3-9 + 30µM LY2119620): 168.8% and 163.9%
- arrestin recruitment as % max effect of acetylcholin (iperoxo log [M] 3-10 + 0.1µM LY2119620): 82.7% and 92.1% and 124.5%
- arrestin recruitment as % max effect of acetylcholin (iperoxo log [M] 3-10 + 3µM LY2119620): 147.1% and 158.1% and 137.1% and 138.5%
- arrestin recruitment as % max effect of acetylcholin (iperoxo log [M] 3-10 + 10µM LY2119620): 103.3% and 152.4% and 152.5% and 133.9%
- arrestin recruitment as % max effect of acetylcholin (iperoxo log [M] 3-10 + 30µM LY2119620): 133.2% and 130.6% and 122.9%
- arrestin recruitment as % max effect of acetylcholin (iperoxo log [M] 3-10 + 100µM LY2119620): 127.5% and 129.1% and 112.5%
- arrestin recruitment as % max effect of acetylcholin (iperoxo log [M] -7 + 0.1µM LY2119620): 171.1% and 186.3% and 156.7% and 161.0%
- arrestin recruitment as % max effect of acetylcholin (iperoxo log [M] -7 + 1µM LY2119620): 129.3% and 176.9% and 172.6%
- arrestin recruitment as % max effect of acetylcholin (iperoxo log [M] -7 + 3µM LY2119620): 210.7% and 168.6% and 182.6% and 172.8%
- arrestin recruitment as % max effect of acetylcholin (iperoxo log [M] -7 + 10µM LY2119620): 131.2% and 159.6% and 162.7% and 198.6%
- arrestin recruitment as % max effect of acetylcholin (iperoxo log [M] -7 + 30µM LY2119620): 161.3% and 181.0% and 168.2%
- arrestin recruitment as % max effect of acetylcholin (iperoxo log [M] -7 + 100µM LY2119620): 157.1% and 172.7% and 165.6%
- arrestin recruitment as % max effect of acetylcholin (iperoxo log [M] -8 + 0.1µM LY2119620): 168.3% and 154.3% and 173.5%
- arrestin recruitment as % max effect of acetylcholin (iperoxo log [M] -8 + 1µM LY2119620): 124.1% and 172.3% and 160.8% and 152.0%
- arrestin recruitment as % max effect of acetylcholin (iperoxo log [M] -8 + 3µM LY2119620): 158.0% and 166.2% and 162.4%
- arrestin recruitment as % max effect of acetylcholin (iperoxo log [M] -8 + 10µM LY2119620): 139.2% and 163.1% and 168.9% and 181.1%
- arrestin recruitment as % max effect of acetylcholin (iperoxo log [M] -8 + 30µM LY2119620): 176.5% and 174.9% and 157.1%
- arrestin recruitment as % max effect of acetylcholin (iperoxo log [M] -8 + 100µM LY2119620): 165.6% and 153.6% and 149.1%
- arrestin recruitment as % max effect of acetylcholin (iperoxo log [M] -9 + 0.1µM LY2119620): 127.2% and 148.3% and 150.9% and 143.2%
- arrestin recruitment as % max effect of acetylcholin (iperoxo log [M] -9 + 3µM LY2119620): 137.5% and 153.6% and 172.9% and 151.5%
- arrestin recruitment as % max effect of acetylcholin (iperoxo log [M] -9 + 10µM LY2119620): 118.8% and 155.2% and 169.6% and 149.0%
- arrestin recruitment as % max effect of acetylcholin (iperoxo log [M] -9 + 30µM LY2119620): 161.0% and 151.6% and 144.8% and 137.0%
- arrestin recruitment as % max effect of acetylcholin (iperoxo log [M] -9 + 100µM LY2119620): 158.6% and 154.0% and 158.3% and 124.7%
- arrestin recruitment as % max effect of acetylcholin (iperoxo log [M] -10 + 10µM LY2119620): 79.6% and 137.1%
- arrestin recruitment as % max effect of acetylcholin (iperoxo log [M] -10 + 30µM LY2119620): 112.5% and 108.5% and 109.4%
- arrestin recruitment as % max effect of acetylcholin (iperoxo log [M] -10 + 100µM LY2119620): 85.8% and 82.4% and 75.4%
